Activity calls are given as the source filed them.
Legend:
[1] = NIH-3T3 fibroblast cytotoxicity, dose response, cytotoxicity control, cell-based, fluorescence, Alamar Blue, secondary assay (AID 2327); type: functional;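 further: NIH-3T3 mouse fibroblasts cultured with fluconazole at 8 µg/mL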
[2] = test system: Streptococcus sp. 'group A'; assay: growth inhibition of control SK(-) GAS strain, dose response, counter-screen for streptokinase expression inhibitor project, luminescence, kanamycin, BacTiterGlo, confirmation (AID 1900); type: functional, organism-based
Streptokinase A = target: T1, Streptokinase A (Streptococcus pyogenes serotype M1, UniProt P10520); assay: S. pyogenes streptokinase expression inhibitors, potency, dose response, plasminogen activation absorbance, OD405 (AID 1914); type: functional, Streptococcus pyogenes M1 GAS;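 further: secreted streptokinase activity via plasminogen activation per viability signal from cell pellet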
T1 sequence (P10520 whole entry): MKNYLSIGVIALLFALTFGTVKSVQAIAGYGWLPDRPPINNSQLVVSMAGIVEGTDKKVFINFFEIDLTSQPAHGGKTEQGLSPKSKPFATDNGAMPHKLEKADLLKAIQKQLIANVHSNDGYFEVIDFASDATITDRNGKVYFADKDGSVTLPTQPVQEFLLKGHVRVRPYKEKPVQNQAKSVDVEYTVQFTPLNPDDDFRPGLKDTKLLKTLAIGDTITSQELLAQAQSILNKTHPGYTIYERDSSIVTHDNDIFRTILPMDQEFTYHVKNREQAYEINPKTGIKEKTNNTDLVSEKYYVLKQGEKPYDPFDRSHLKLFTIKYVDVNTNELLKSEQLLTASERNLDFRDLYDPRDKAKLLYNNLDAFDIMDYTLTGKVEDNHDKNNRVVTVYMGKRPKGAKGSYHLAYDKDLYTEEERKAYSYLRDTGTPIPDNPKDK

[3] = C. albicans growth with fluconazole, confirmation, fluorescence, retest (AID 2467); type: functional, cell-based
Streptococcus = assay: Group A Streptococcus viability loss, dose response, counter-screen for streptokinase expression inhibitor project, luminescence, BacTiterGlo (AID 1915); type: functional, organism-based;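 further: potency for reduction of bacterial viability or growth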
[4] = target: T2, Apoptotic protease-activating factor 1 (Homo sapiens, UniProt O14727); type: functional
T2 sequence (O14727 whole entry): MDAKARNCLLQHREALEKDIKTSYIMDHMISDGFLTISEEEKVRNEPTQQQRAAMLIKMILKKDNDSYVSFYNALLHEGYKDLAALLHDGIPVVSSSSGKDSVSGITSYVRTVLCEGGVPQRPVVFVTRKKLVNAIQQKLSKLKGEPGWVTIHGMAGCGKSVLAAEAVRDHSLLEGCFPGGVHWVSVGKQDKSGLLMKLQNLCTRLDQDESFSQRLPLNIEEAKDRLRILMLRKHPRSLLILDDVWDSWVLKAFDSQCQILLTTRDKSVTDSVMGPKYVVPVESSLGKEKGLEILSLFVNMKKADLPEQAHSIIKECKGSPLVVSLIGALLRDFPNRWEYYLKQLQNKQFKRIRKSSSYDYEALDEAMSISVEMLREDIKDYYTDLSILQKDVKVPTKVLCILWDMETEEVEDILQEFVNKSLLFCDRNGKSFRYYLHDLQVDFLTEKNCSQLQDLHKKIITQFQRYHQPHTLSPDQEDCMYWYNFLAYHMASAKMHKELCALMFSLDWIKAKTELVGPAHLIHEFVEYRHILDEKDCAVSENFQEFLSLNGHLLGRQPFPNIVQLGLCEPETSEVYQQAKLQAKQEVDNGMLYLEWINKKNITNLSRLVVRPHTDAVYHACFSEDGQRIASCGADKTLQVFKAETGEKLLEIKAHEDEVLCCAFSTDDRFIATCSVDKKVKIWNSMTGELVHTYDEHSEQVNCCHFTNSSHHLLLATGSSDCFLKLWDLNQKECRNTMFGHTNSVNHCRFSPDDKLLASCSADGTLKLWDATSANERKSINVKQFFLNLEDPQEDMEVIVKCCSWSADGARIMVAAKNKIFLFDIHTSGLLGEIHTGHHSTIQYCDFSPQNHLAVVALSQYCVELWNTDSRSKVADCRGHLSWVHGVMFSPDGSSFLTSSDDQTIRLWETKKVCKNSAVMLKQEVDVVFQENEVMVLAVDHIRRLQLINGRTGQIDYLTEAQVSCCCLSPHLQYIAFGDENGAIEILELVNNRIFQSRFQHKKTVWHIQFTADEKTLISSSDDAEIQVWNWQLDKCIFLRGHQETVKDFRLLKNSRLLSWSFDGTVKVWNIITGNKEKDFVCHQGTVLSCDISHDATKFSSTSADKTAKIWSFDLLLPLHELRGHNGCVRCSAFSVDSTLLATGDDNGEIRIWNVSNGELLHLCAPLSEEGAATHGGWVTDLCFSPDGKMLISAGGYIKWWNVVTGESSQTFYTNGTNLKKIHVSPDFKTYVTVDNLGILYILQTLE

[5] = target: T3, Tyrosyl-DNA phosphodiesterase 2 (Homo sapiens, UniProt O95551); assay: human TDP2 enzyme inhibitors, dose response, biochemical, epi absorbance, IC50 (AID 743297)
T3 sequence (O95551 whole entry): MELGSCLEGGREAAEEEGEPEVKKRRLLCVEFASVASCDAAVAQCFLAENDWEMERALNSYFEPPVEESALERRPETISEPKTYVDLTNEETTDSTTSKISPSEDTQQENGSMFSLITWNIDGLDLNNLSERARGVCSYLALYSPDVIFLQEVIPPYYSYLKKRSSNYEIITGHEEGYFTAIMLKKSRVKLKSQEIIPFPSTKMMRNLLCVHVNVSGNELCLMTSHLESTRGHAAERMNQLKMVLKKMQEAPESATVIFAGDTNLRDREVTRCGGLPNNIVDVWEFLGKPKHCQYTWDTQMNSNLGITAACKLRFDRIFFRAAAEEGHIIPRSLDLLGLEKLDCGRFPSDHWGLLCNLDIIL

[6] = Vero cell cytotoxicity, dose response, cytotoxicity control for Vif-APOBEC3G degradation inhibitor project, Vero cells (AID 1117358); type: functional; details: Human immunodeficiency virus 1, Vero
[7] = Shn3 3'UTR reporter inhibitors, dose response, cell-based, Clone20 osteoblasts, firefly luciferase, cherry-picked (AID 624132); type: functional;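 further: firefly luciferase luminescence from reporter carrying the Shn3 3'UTR in osteoblasts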
[8] = HepG2 cell cytotoxicity, dose response, cytotoxicity control for Shn3 inhibitor project, CellTiter-Glo, cherry-picked (AID 624134); type: functional, cell-based
[9] = control 3'UTR Renilla luciferase suppression, dose response, counter-screen for Shn3 inhibitor project, cell-based, Clone20-Shn3RL, cherry-picked (AID 624133); type: functional
[10] = inhibitors of PGC1a acetylation in cells, dose response, cell-based, cherry-picked samples (AID 720514); type: functional;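 further: potency may reflect raised or lowered acetylation signal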
Paired box protein Pax-8 = Paired box protein Pax-8 (Homo sapiens, UniProt Q06710); assay: inhibitors of PAX8-driven TPO luciferase reporter, dose response, RMG-I cells, cherry-pick (AID 687027); type: functional, cell-based;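 further: luciferase reporter driven by Pax8 target thyroperoxidase promoter measured by SteadyGlo luminescence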
[11] = cytotoxicity in OVCAR8 ovarian cancer cells, dose response, PAX8 project, cell-based, plate reader, dry powder samples (AID 743197); type: functional; details: OVCAR-8

Chain of Paired box protein Pax-8 (Q06710 whole entry): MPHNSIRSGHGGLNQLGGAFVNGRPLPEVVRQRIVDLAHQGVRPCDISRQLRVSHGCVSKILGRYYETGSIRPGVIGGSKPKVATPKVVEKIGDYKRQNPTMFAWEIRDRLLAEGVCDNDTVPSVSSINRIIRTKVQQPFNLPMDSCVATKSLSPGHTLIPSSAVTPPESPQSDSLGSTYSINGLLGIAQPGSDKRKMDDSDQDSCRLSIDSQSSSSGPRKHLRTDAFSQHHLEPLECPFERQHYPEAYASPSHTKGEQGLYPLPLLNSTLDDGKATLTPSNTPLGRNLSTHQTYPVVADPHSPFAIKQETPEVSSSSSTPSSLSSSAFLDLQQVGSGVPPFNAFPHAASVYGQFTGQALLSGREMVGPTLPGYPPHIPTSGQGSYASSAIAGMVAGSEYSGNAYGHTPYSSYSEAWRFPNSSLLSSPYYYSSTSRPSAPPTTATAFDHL

Oc1c(Br)cc(Br)cc1CNc1cccc2cccnc12
EC50 [1]: 101 µM (active) | EC50 [2]: 6.08 µM (active) | EC50 (Streptokinase A): > 150 µM (not active) | EC50 [3]: > 38 µM (not active) | EC50 (Streptococcus): 9.25 µM (active) | IC50 [4]: 40.2 µM (active) | IC50 [5]: > 128 µM (inactive)

Cc1cccc(N2CCN(C(=O)c3ccncc3)CC2)c1C
CC50 [6]: > 40 µM (active)

COc1ccccc1NC(=O)Cn1c(C)cc(=O)c2cccc(OC)c21
AC50 [7]: 3.16 µM (active) | AC50 [8]: 48.1 µM (active) | AC50 [9]: 4.46 µM (active) | AC50 [10]: 35.8 µM (active)

O=C(CCNS(=O)(=O)c1ccc(Cl)cc1)NCc1cccnc1
CC50 [6]: > 40 µM (active)

C[C@@H]1CN([C@H](C)CO)C(=O)c2cc(NS(=O)(=O)c3cccs3)ccc2O[C@@H](C)CCCCO[C@H]1CN(C)Cc1ccc(C(F)(F)F)cc1
AC50 (Paired box protein Pax-8): 8.66 µM (active) | AC50 [11]: > 70 µM (inactive)

From ChEMBL document CHEMBL1201862, “PubChem BioAssay data set” (2004)
